Measured values reported in patent US7576094B2, “Spiro derivatives as lipoxygenase inhibitors” (Eli Lilly and Company, priority 2004, dated 2009).
pEC50, pIC50: −log10 of the molar value.

Columns and labels:
[1] = system: release of the leukotriene LTB4 from a neutrophil cell line (MPRO cell line); assay: LTB4-Cell Assay; assay type: cell-based; details: Mus musculus, 1 h, read-out: inhibition of LTB4 with an EC50
Description: • This procedure was used for measuring the release of the leukotriene LTB4 from a neutrophil cell line using a competitive ELISA technique. Materials and Equipments Materials for Cell Preparation and Experiment • MPRO cell line (ATCC, Catalog # CRL-11422) • Calcium ionophore (A23187) (Sigma, Catalog # C7522) • Nordihydroguaiaretic acid (NDGA) (BioMol ,Catalog # EI101-0001) • Retinoic Acid (all-trans) (ATRA) (Sigma, Catalog # 95152) • Sterile, tissue-culture treated 96-well plates (Corning, Catalog # 3614) Materials for LTB4 ELISA • Precoated (Mouse Anti-Rabbit IgG) EIA 96 Well Strip Plates (Cayman, Catalog # 400004) • Leukotriene B4 AChE Tracer (Cayman Catalog # 420110) • Leukotriene B4 EIA Antiserum (Cayman Catalog # 420112) • Ellman's Reagent (Cayman Catalog # 400050) • EIA Buffer Concentrate (10×) (Cayman Catalog # 400060) • Wash Buffer Concentrate (400×) (Cayman Catalog # 400062) • Plastic plate covers (Cayman Catalog # 400012) Procedure
A mouse promyelocytic cell line (MPRO) was used in this assay. These cells are committed immature neutrophils that can be differentiated into mature neutrophils by treatment with 10 μM all-trans retinoic acid for 72 hours.
Following 72 hours of differentiation, cells were stimulated with 1 μM of a calcium ionophore (A23187) in the presence or absence of test compound or vehicle for 1 hour at 37° C. After this time, supernatant was removed from the cells and the LTB4 levels were determined following manufacturer's instructions, using a Leukotriene B4 EIA kit from Cayman (Cat # 5201 11). The negative controls were media samples from differentiated but un-stimulated cells. The compounds were screened at 5 concentrations in quadruplicate starting at 10 μM.

[2] = system: LTB4 production in human whole blood; assay: Inhibition of LTB4 Production in Blood; assay type: cell-based; details: 1 h, 20 μM A23187, 60 minutes at 37° C., LTB4 in plasma by ELISA, read-out: protection against LTB4 at an EC50
Procedure: • Human whole blood (Na citrate) (Stanford Blood Center) • A23187, (Sigma, Cat# C-7522) • Leukotriene B4 EIA reagents (Cayman Chemical, Cat # 520111) • BWA4C (Sigma, Cat # B7559) Procedure Preparation of A23187:
A23187 was prepared as a 10 mM stock solution in DMSO (aliquots can be stored at −20° C.). On the day of the assay the stock solution was diluted as follows: 70 μL 10 mM stock added to 1.6 mL plasma to give a working concentration of 0.42 mM.
From a 30 mM stock solution in DMSO, test articles were diluted to a working concentration of 600 μM in PBS (i.e. 10 μL stock solution+490 μL PBS). This is the highest concentration (gives a final testing concentration of 30 μM). From this 600 μM solution test articles were serially diluted 1:3 in PBS to give a dose-response curve. 10 μL of each concentration of test article was then added to 4 wells of a 96-well plate (i.e. testing in quadruplicate). A positive control compound, BWA4C was used in every assay.
Human whole blood was added to the plates containing compounds (190 μL per well) and mixed well. The blood was incubated with compound at 37° C. for 15 minutes. Following this incubation, 10 μL of 0.42 mM A23187 was added to each well except the negative control wells to give a final calcium ionophore concentration of 20 μM. The plates were then incubated at 37° C. for 60 minutes. After the incubation period, plates were centrifuged for 15 min at 2000 g at 4° C. in sealed microplate buckets. Plasma was then removed for quantitation of LTB4 levels by ELISA.
LTB4 levels in the plasma were determined using a commercially available ELISA kit from Cayman Chemicals. The ELISA was run according to the manufacturer's instructions. The LTB4 levels in the vehicle control sample were then compared to those in which the test article had been added. From this a percent inhibition of LTB4 production by each concentration of test article was calculated and the IC50 was determined.

[3] = target: T1, human recombinant 5-Lipoxygenase (Homo sapiens, UniProt P09917); assay: 5-Lipoxygenase Enzyme Assay; assay type: biochemical; details: 70 μM arachidonic acid, 10 minute incubation at room temperature, FOX reagent, absorbance at 620 nm; read-out: inhibition of 5-Lipoxygenase with an IC50
T1 sequence (P09917 1-674): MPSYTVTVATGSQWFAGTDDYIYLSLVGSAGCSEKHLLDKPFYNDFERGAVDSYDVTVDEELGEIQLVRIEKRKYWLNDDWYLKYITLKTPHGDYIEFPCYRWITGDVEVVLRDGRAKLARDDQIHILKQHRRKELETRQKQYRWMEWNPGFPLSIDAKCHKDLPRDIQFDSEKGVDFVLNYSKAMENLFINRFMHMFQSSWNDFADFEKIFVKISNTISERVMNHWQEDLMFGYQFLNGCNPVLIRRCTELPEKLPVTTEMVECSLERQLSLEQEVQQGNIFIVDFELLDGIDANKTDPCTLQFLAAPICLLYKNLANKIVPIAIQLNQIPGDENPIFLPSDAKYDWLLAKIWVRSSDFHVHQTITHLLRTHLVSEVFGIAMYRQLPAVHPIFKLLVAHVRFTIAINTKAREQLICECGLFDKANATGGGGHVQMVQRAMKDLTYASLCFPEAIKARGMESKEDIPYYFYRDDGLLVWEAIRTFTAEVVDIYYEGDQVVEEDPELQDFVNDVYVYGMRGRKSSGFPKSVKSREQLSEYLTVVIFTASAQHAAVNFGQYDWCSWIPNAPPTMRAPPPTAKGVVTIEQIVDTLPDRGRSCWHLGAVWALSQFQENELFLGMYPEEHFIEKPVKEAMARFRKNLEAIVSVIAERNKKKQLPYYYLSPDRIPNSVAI
Description: This procedure was used for measuring the enzymatic activity of human recombinant 5-Lipoxygenase using a colorimetric method based on the ferric oxidation of xylenol orange.
• 96 well flat bottom microfilter plates (VWR, Catalog # 62402-933 9295) • Lipoxygenase screening assay buffer (Cayman, Catalog # 760710) • Human recombinant 5-Lipoxygenase (Cayman, Catalog # 60402) • Arachidonic Acid (Sigma, Catalog # A3555) • Xylenol orange tetra sodium salt (Aldrich, Catalog # 227854) • Iron (II) sulfate heptahydrate (Sigma, Catalog # F7002) • Sulfuric acid (95-98%) [18 M] • Methanol Procedure
Human recombinant 5-Lipoxygenase (Cayman Cat # 60402) was used in this assay. The test compound and/or vehicle was added to 0.5 μL 5-Lipoxygenase in 50 mM Tris-HCl buffer, pH 7.4. The reaction was initiated by addition of 70 μM arachidonic acid in Tris-HCl buffer, pH 7.4, and terminated after a 10 minute incubation at room temperature by addition of FOX reagent (25 mM sulfuric acid, 100 μM xylenol orange, 100 μM iron (II) sulfate, methanol:water 9:1). The yellow color of acidified xylenol orange was converted to a blue color by the lipid hydroperoxide-mediated oxidation of Fe^2+ ions and the interaction of the resulting Fe^3+ ions with the dye. The complex was allowed to form during a 1 hour incubation at room temperature with shaking. Absorbance of the Fe^3+ complex was then measured at […] using a spectrophotometer.
Negative controls contained enzyme during the incubation step but substrate was not added until after the FOX reagent. Compounds were screened at 5 concentrations in triplicate starting at 10 μM

Row | SMILES | pEC50 [1] | pEC50 [2] | pIC50 [3]
1 | CONCC1=Cc2c(cc(C)c(OC(=O)C(C)(C)C)c2C)OC12CCC2 [3-[(methoxyamino)methyl]-5,7-dimethylspiro[chromene-2,1′-cyclobutan]-6-yl pivalate] | > 5.30 |  | 
2 | CCc1cc2c(c(CC)c1O)CC(COC(N)=O)C1(CCC1)O2 (stereo not drawn) [(5,7-diethyl-6-hydroxyspiro[chroman-2,1′-cyclobutane]-3-yl)methyl carbamate] | > 5.30 | > 5.00 | 
3 | CONCC1=Cc2c(cc(C)c(O)c2C)OC12CCC2 [3-[(methoxyamino)methyl]-5,7-dimethylspiro[chromene-2,1′-cyclobutan]-6-ol] | > 5.30 | > 5.00 | 
4 | CCc1cc2c(c(CC)c1O)CC(CO)C1(CCC1)O2 (stereo not drawn) [5,7-diethyl-3-(hydroxymethyl)spiro[chroman-2,1′-cyclobutan]-6-ol] | > 5.30 | > 5.00 | 
5 | CCO/N=C1\CC2(CCC2)Oc2c(C)c(C)c(O)c(CC)c21 [5-ethyl-6-hydroxy-7,8-dimethylspiro[chromene-2,1′-cyclobutan]-4(3H)-one O-ethyloxime] | > 5.30 |  | > 6.52
6 | Cc1c(C)c2c(c(C)c1OCc1ccc3ccccc3n1)CCC1(CCC1)O2 [2-{[(5,7,8-trimethyl-3,4-dihydrospiro[chromene-2,1′-cyclobutan]-6-yl)oxy]methyl}quinoline] | > 5.30 |  | 
7 | Cc1c(C)c2c(c(C)c1O)C(=O)CC1(CCC1)S2 [6′-hydroxy-5′,7′,8′-trimethylspiro[cyclobutane-1,2′-thiochromen]-4′(3′H)-one] | > 5.30 |  | > 6.52
8 | CCO/N=C1\CC2(CCC2)Oc2cc(CC)c(O)c(CC)c21 [5,7-diethyl-6-hydroxyspiro[chromene-2,1′-cyclobutan]-4(3H)-one O-ethyloxime] | > 5.30 |  | > 6.52
9 | Cc1c(C)c2c(c(C)c1O)C(O)CC1(CCC1)O2 (stereo not drawn) [5,7,8-trimethyl-3,4-dihydrospiro[chromene-2,1′-cyclobutane]-4,6-diol] | > 5.30 |  | 
10 | Cc1cc(O)c(C(C)C)c2c1OC1(CCC1)CC2 [5-isopropyl-8-methyl-3,4-dihydrospiro[chromene-2,1′-cyclobutan]-6-ol] | > 5.30 |  | 
11 | Cc1cc2c(c(C)c1O)C(NS(=O)(=O)c1ccccc1)CC1(CCC1)O2 (stereo not drawn) [N-(6-hydroxy-5,7-dimethyl-3,4-dihydrospiro[chromene-2,1′-cyclobutan]-4-yl)benzenesulfonamide] | > 5.30 |  | > 6.52
12 | CCONC1CC2(CCC2)Oc2cc(C)c(O)c(C)c21 (stereo not drawn) [4-(ethoxyamino)-5,7-dimethyl-3,4-dihydrospiro[chromene-2,1′-cyclobutan]-6-ol] | > 5.30 |  | > 6.52
13 | Cc1c(O)c(C(C)(C)C)cc2c1C(O)CC1(CCC1)O2 (stereo not drawn) [7-tert-butyl-5-methylspiro[chroman-2,1′-cyclobutane]-4,6-diol] | > 5.30 |  | 
14 | Cc1c(C)c2c(c(C)c1O)C(C#N)=CC1(CCC1)O2 [6-hydroxy-5,7,8-trimethylspiro[chromene-2,1′-cyclobutane]-4-carbonitrile] | > 5.30 |  | 
15 | Cc1cc(O)c(Cl)c2c1OC1(CCC1)CC2 [5-chloro-8-methyl-3,4-dihydrospiro[chromene-2,1′-cyclobutan]-6-ol] | > 5.30 |  | 
16 | CCc1c(O)c(C)c(C)c2c1/C(=N/OC)CC1(CCC1)O2 [5-ethyl-6-hydroxy-7,8-dimethylspiro[chromene-2,1′-cyclobutan]-4(3H)-one O-methyloxime] | > 5.30 |  | > 6.52
17 | C=Cc1c(C)c(O)c(C)c2c1OC1(CCC1)CC2 [5,7-dimethyl-8-vinyl-3,4-dihydrospiro[chromene-2,1′-cyclobutan]-6-ol] | > 5.30 |  | > 6.52
18 | Cc1c(OC(=O)CN(C)C)cc2c(c1C)OC1(CCC1)CC2 [7,8-dimethyl-3,4-dihydrospiro[chromene-2,1′-cyclobutan]-6-yl (dimethylamino)acetate] | > 5.30 |  | 
19 | CCCCCCNC1c2c(C)c(O)c(C)c(C)c2OCC12CCC2 (stereo not drawn) [4-(hexylamino)-5,7,8-trimethylspiro[chroman-3,1′-cyclobutan]-6-ol] | > 5.30 |  | > 6.52
20 | Cc1c2c(c(C)c(Cl)c1OC(=O)CN(C)C)OC1(CCC1)CC2 [7-chloro-5,8-dimethyl-3,4-dihydrospiro[chromene-2,1′-cyclobutan]-6-yl (dimethylamino)acetate] | > 5.30 |  | > 6.52
21 | Cc1c(O)cc2c(c1C)N(CCCN1C(=O)c3ccccc3C1=O)CC1(CC1)C2 [2-(3-(6′-hydroxy-7′,8′-dimethyl-2′,4′-dihydro-1′H-spiro[cyclopropane-1,3′-quinoline]-1′-yl)propyl)isoindoline-1,3-dione] | > 5.30 |  | 
22 | CON(C)C1CC2(CCC2)Oc2c(C)c(C)c(O)c(C)c21 (stereo not drawn) [4-[methoxy(methyl)amino]-5,7,8-trimethyl-3,4-dihydrospiro[chromene-2,1′-cyclobutan]-6-ol] | > 5.30 |  | 
23 | COC(=O)C1CC(c2c(C)c(O)c(C)c3c2OC2(CCC2)CC3)=NO1 (stereo not drawn) [methyl 3-(6-hydroxy-5,7-dimethyl-3,4-dihydrospiro[chromene-2,1′-cyclobutan]-8-yl)-4,5-dihydroisoxazole-5-carboxylate] | > 5.30 |  | > 6.52
